Assay results published in patent publication US10988449B2, “Isoxazole derivatives as nuclear receptor agonists and uses thereof” (IL DONG PHARMACEUTICAL CO., LTD., priority 2017, dated 2021).
Where two headings read alike, the source gives them in different places.

What was measured:
[1] = multiple rodent models; cited from earlier work
[2] = system: hepatic stellate cells (HSC); conditions: cultured HSCs; cited from earlier work
[3] = in vivo; cited from earlier work
Mouse pharmacokinetics = assay type: in vivo; parameters: concentration or dose not given beside the values; conditions: Balb/c male mice, blood samples 15 to 1140 min, LC-MS/MS
Protocol: To evaluate the pharmacokinetics test, the invented 18 compounds of examples were determined as follows. Blood samples are collected at 15, 30, 60, 120, 240, 480, 1140 min. Quantification is by using a LC-MS/MS method specific to the selected compound. Pharmacokinetics parameters are calculated using WinNonLinnon compartmental analysis software.

[4] = db/db, ob/ob and KK-A(y)mice; cited from earlier work
human FXR = biological target: T1, human FXR (Homo sapiens, UniProt Q96RI1); test: FXR reporter assay (cellular FXR activities); assay type: cell-based; conditions: for EC50: FXR reporter cells, 24 hours incubation, luciferase, read-out: Reporter Cell EC50; for Emax: read-out: Emax (%) (GW4064 Emax = 100%)
T1 construct: expressed in transfected cells
T1 sequence (Q96RI1 1-486): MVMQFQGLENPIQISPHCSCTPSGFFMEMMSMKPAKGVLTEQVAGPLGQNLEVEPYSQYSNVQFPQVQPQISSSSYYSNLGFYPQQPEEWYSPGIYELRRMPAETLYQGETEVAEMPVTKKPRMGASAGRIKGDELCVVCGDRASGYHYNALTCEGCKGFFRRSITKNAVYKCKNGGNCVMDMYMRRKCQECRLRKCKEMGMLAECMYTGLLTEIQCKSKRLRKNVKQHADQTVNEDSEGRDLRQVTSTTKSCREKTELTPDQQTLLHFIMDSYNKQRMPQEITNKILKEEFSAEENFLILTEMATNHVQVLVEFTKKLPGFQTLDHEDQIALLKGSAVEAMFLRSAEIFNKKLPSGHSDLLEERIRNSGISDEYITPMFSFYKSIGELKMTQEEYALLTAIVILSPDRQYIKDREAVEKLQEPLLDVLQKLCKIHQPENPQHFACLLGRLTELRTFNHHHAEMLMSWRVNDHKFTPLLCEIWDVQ
Procedure, shortened: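 Reporter cells overexpressing human FXR exposed to compound dilutions for 24 h at 37 °C, 5% CO2. Luciferase signal used to calculate EC50.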

Row | SMILES | AUC (Mouse pharmacokinetics; mouse, read-out: AUC) [ng·h/mL] | EC50 (human FXR) [nM] | Emax (human FXR) [%] | also measured
1 | CC[C@H]1[C@@H](O)[C@@H]2[C@H](CC[C@]3(C)[C@@H]([C@H](C)CCC(=O)O)CC[C@@H]23)[C@@]2(C)CC[C@@H](O)C[C@@H]12 [Compound 6EtCDCA, 6-ethyl-chenodeoxycholic acid] | – | – | – | hepatic fibrosis [1]: promote resolution of hepatic fibrosis; expression of fibrotic markers such as α-smooth muscle actin and α1(I) collagen [2]: decreased expression of fibrotic markers; impairment of bile flow [3]: fully reverse the impairment of bile flow; liver cell injury caused by the cytotoxic lithocholic acid [3]: protect the hepatocytes against liver cell injury
2 | CC(C)c1onc(-c2c(Cl)cccc2Cl)c1COc1ccc(/C=C/c2cccc(C(=O)O)c2)c(Cl)c1 [WO2000037077 GW4064] | – | – | – | AUC (Mouse pharmacokinetics): 253.31 ng·h/mL; insulin sensitivity [4]: improved insulin sensitivity; plasma glucose levels [4]: reduced plasma glucose levels
3 | CNc1cc(C#Cc2ccc(OCc3c(-c4c(Cl)cccc4Cl)noc3C3CC3)cc2Cl)cc(C(=O)O)c1 [Compound I-52, 3-((2-chloro-4-((5-cyclopropyl-3-(2,6-dichlorophenyl)isoxazol-4-yl)methoxy)phenyl)ethynyl)-5-(methylamino)benzoic acid] | 3310 | 20 to 60 | > 100 | –
4 | O=C(O)c1cc(C#Cc2ccc(OCc3c(-c4c(Cl)cccc4Cl)noc3C3CC3)cc2Cl)c2cc[nH]c2c1 [Compound I-91, 4-((2-chloro-4-((5-cyclopropyl-3-(2,6-dichlorophenyl)isoxazol-4-yl)methoxy)phenyl)ethynyl)-1H-indole-6-carboxylic acid] | 544 | ≤ 20 | > 100 | –
5 | CC(C)(C)OC(=O)Nc1cc(C#Cc2ccc(OCc3c(-c4c(Cl)cccc4Cl)noc3C3CC3)cc2Cl)cc(C(=O)O)c1 [Compound I-77, 3-((tert-butoxycarbonyl)amino)-5-((2-chloro-4-((5-cyclopropyl-3-(2,6-dichlorophenyl)isoxazol-4-yl)methoxy)phenyl)ethynyl)benzoic acid] | 1010 | ≤ 20 | 100 | –
